Measurements: PubChem BioAssay AID248 (DTP/NCI, 2004)
“And” between values parts separate entries of the source, which are not always exact repeats. Equal values may be shown once. Inconclusive results and toxic doses are left out.

System: L1210 leukemia ip in BDF1 mice, survival T/C
Assay: NCI In Vivo Anticancer Drug Screen. Data for tumor model L1210 Leukemia (intraperitoneal) in B6D2F1 (BDF1) mice
Conditions: endpoint: mean survival time, higher = longer survival
Outline: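 Antitumor effect is assessed in tumor-bearing animals. Survival in the compound arm is compared with a vehicle-dosed control arm and expressed as their quotient.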

[1] = dose: 100.0 mg/kg/injection, schedule: Q04DX002 (ip), vehicle: Klucel (hydroxypropylcellulose) (HPC)
[2] = dose: 50.0 mg/kg/injection, schedule: Q01DX001 (ip), vehicle: carboxymethylcellulose (CMC)

For `O=C(NNc1ccccc1)NC1OCC(O)C(O)C1O` (configuration not stated), the T/C (dose: 100.0 mg/kg/injection, schedule: Q01DX009 (ip), vehicle: saline) was 92 % of control, the T/C (dose: 100.0 mg/kg/injection, schedule: Q04DX003 (ip), vehicle: water) was 97 % of control and the T/C (dose: 200.0 mg/kg/injection, schedule: Q01DX009 (ip), vehicle: saline) was 92 % of control. The T/C (dose: 200.0 mg/kg/injection, schedule: Q04DX003 (ip), vehicle: water) was 97 % of control, the T/C (dose: 400.0 mg/kg/injection, schedule: Q01DX009 (ip), vehicle: saline) was 93 % of control and the T/C (dose: 400.0 mg/kg/injection, schedule: Q04DX003 (ip), vehicle: water) was 97 % of control.
With `COC(=O)N/N=C/c1c[nH]c2ccccc12` the T/C (dose: 100.0 mg/kg/injection, schedule: Q01DX009 (ip), vehicle: Klucel (hydroxypropylcellulose) (HPC)) was 94 % of control and the T/C (dose: 200.0 mg/kg/injection, schedule: Q01DX009 (ip), vehicle: Klucel (hydroxypropylcellulose) (HPC)) was 106 % of control.
With `O=NN(CCF)C(=O)NC1C2CC3CC(C2)CC1C3` (configuration not stated) the T/C (dose: 12.5 mg/kg/injection, schedule: Q01DX001 (ip), vehicle: other) was 114 % of control, the T/C (dose: 25.0 mg/kg/injection, schedule: Q01DX001 (ip), vehicle: other) was 123 % of control and the T/C (dose: 50.0 mg/kg/injection, schedule: Q01DX001 (ip), vehicle: other) was 167 % of control.
With `Cc1cccc2c1/C(=N\Nc1ccc([N+](=O)[O-])cc1[N+](=O)[O-])CC(C)(C)C2` the T/C (dose: 100.0 mg/kg/injection, schedule: Q01DX009 (ip), vehicle: saline with Tween-80) was 104 % of control, the T/C (dose: 200.0 mg/kg/injection, schedule: Q01DX009 (ip), vehicle: saline with Tween-80) was 100 % of control and the T/C (dose: 400.0 mg/kg/injection, schedule: Q01DX009 (ip), vehicle: saline with Tween-80) was 100 % of control.
For `COc1ccc(C(=O)O)nc1C`, the T/C (dose: 75.0 mg/kg/injection, schedule: Q01DX001 (ip), vehicle: acetone) was 98 % of control, the T/C (dose: 150.0 mg/kg/injection, schedule: Q01DX001 (ip), vehicle: acetone) was 101 % of control and the T/C (dose: 300.0 mg/kg/injection, schedule: Q01DX001 (ip), vehicle: acetone) was 98 % of control.
`Cc1cc2ccc(OC(=O)c3ccc(N=C(N)N)cc3)cc2oc1=O` was tested, and the T/C (dose: 100.0 mg/kg/injection, schedule: Q04DX003 (ip), vehicle: saline with Tween-80) was 97 % of control, the T/C (dose: 200.0 mg/kg/injection, schedule: Q04DX003 (ip), vehicle: saline with Tween-80) was 95 % of control and the T/C (dose: 400.0 mg/kg/injection, schedule: Q04DX003 (ip), vehicle: saline with Tween-80) was 98 % of control.
For `O=C1Nc2ccc3c(c2/C1=C\c1cc2c(cc1Br)OCO2)OCO3`, the T/C (dose: 50.0 mg/kg/injection, schedule: Q01DX001 (ip), vehicle: alcohol) was 93 % of control, the T/C (dose: 100.0 mg/kg/injection, schedule: Q01DX001 (ip), vehicle: alcohol) was 93 % of control and the T/C (dose: 200.0 mg/kg/injection, schedule: Q01DX001 (ip), vehicle: alcohol) was 98 % of control. For the same compound, the T/C (dose: 400.0 mg/kg/injection, schedule: Q01DX001 (ip), vehicle: alcohol) was 96 % of control.
`CC(C)(C)c1ccc(O)c([N+](=O)[O-])c1` was tested, and the T/C (dose: 25.0 mg/kg/injection, schedule: Q04DX002 (ip), vehicle: Klucel (hydroxypropylcellulose) (HPC)) was 86 % of control, the T/C (dose: 50.0 mg/kg/injection, schedule: Q04DX002 (ip), vehicle: Klucel (hydroxypropylcellulose) (HPC)) was 86 % of control and the T/C [1] was 102 % of control and 88 % of control.
With `O=C(O)C1C2CC3C(C2)C31` (configuration not stated) the T/C (dose: 100.0 mg/kg/injection, schedule: Q04DX003 (ip), vehicle: other) was 97 % of control, the T/C (dose: 200.0 mg/kg/injection, schedule: Q04DX003 (ip), vehicle: other) was 98 % of control and the T/C (dose: 400.0 mg/kg/injection, schedule: Q04DX003 (ip), vehicle: other) was 88 % of control.
With `CC(=O)OCC(=O)C1(O)C(C)CC2C3C=C(C)C4=Cc5c(cnn5-c5ccccc5)CC4(C)C3C(O)CC21C` (configuration not stated) the T/C (dose: 8.0 mg/kg/injection, schedule: Q01DX001 (sc), vehicle: steriod suspending solution) was 110 % of control, the T/C (dose: 16.0 mg/kg/injection, schedule: Q01DX001 (sc), vehicle: steriod suspending solution) was 105 % of control and the T/C (dose: 32.0 mg/kg/injection, schedule: Q01DX001 (sc), vehicle: steriod suspending solution) was 113 % of control. The T/C (dose: 45.0 mg/kg/injection, schedule: Q01DX001 (sc), vehicle: steriod suspending solution) was 106 % of control, the T/C (dose: 70.0 mg/kg/injection, schedule: Q01DX001 (sc), vehicle: steriod suspending solution) was 89 % of control and the T/C (dose: 105.0 mg/kg/injection, schedule: Q01DX001 (sc), vehicle: steriod suspending solution) was 95 % of control. The T/C (dose: 160.0 mg/kg/injection, schedule: Q01DX001 (sc), vehicle: steriod suspending solution) was 98 % of control, the T/C (dose: 240.0 mg/kg/injection, schedule: Q01DX001 (sc), vehicle: steriod suspending solution) was 110 % of control and the T/C (dose: 360.0 mg/kg/injection, schedule: Q01DX001 (sc), vehicle: steriod suspending solution) was 93 % of control.
`O=C(O)CNC(=O)CNC(=O)C1NC(C(F)(F)F)(C(F)(F)F)OC1(C(F)(F)F)C(F)(F)F` (configuration not stated) was tested, and the T/C (dose: 100.0 mg/kg/injection, schedule: Q01DX001 (ip), vehicle: Klucel (hydroxypropylcellulose) (HPC)) was 97 % of control, the T/C (dose: 200.0 mg/kg/injection, schedule: Q01DX001 (ip), vehicle: Klucel (hydroxypropylcellulose) (HPC)) was 101 % of control and the T/C (dose: 400.0 mg/kg/injection, schedule: Q01DX001 (ip), vehicle: Klucel (hydroxypropylcellulose) (HPC)) was 92 % of control.
In the case of `COc1cc(OC)c(NC(=O)c2ccc([N+](=O)[O-])s2)cc1Cl`, the T/C (dose: 50.0 mg/kg/injection, schedule: Q01DX005 (ip), vehicle: saline) is reported as 94 % of control, the T/C (dose: 100.0 mg/kg/injection, schedule: Q01DX005 (ip), vehicle: saline) is reported as 94 % of control and the T/C (dose: 200.0 mg/kg/injection, schedule: Q01DX005 (ip), vehicle: saline) is reported as 94 % of control.
In the case of `N#CCSc1ncnc2nc[nH]c12`, the T/C (dose: 15.0 mg/kg/injection, schedule: Q01DX010 (ip), vehicle: saline) is reported as 94 % of control and 116 % of control, the T/C (dose: 30.0 mg/kg/injection, schedule: Q01DX010 (ip), vehicle: saline) is reported as 97 % of control and 110 % of control and the T/C [2] is reported as 107 % of control. For the same compound, the T/C (dose: 60.0 mg/kg/injection, schedule: Q01DX010 (ip), vehicle: saline) was 118 % of control and 121 % of control, the T/C (dose: 62.5 mg/kg/injection, schedule: Q01DX Z (ip), vehicle: carboxymethylcellulose (CMC)) was 109 % of control and the T/C (dose: 76.0 mg/kg/injection, schedule: Q01DX001 (ip), vehicle: carboxymethylcellulose (CMC)) was 110 % of control. For the same compound, the T/C (dose: 114.0 mg/kg/injection, schedule: Q01DX001 (ip), vehicle: carboxymethylcellulose (CMC)) was 107 % of control, the T/C (dose: 171.0 mg/kg/injection, schedule: Q01DX001 (ip), vehicle: carboxymethylcellulose (CMC)) was 113 % of control and the T/C (dose: 256.5 mg/kg/injection, schedule: Q01DX001 (ip), vehicle: carboxymethylcellulose (CMC)) was 123 % of control.
With `O=C1c2ccccc2CCCC12OC2c1ccccc1` (configuration not stated) the T/C (dose: 75.0 mg/kg/injection, schedule: Q04DX003 (ip), vehicle: Klucel (hydroxypropylcellulose) (HPC)) was 92 % of control, the T/C (dose: 150.0 mg/kg/injection, schedule: Q04DX003 (ip), vehicle: Klucel (hydroxypropylcellulose) (HPC)) was 93 % of control and the T/C (dose: 300.0 mg/kg/injection, schedule: Q04DX003 (ip), vehicle: Klucel (hydroxypropylcellulose) (HPC)) was 95 % of control.
For `CSc1ccc(NC(=O)C(F)(F)F)cc1`, the T/C [2] was 97 % of control, the T/C (dose: 100.0 mg/kg/injection, schedule: Q01DX001 (ip), vehicle: carboxymethylcellulose (CMC)) was 92 % of control and the T/C (dose: 200.0 mg/kg/injection, schedule: Q01DX001 (ip), vehicle: carboxymethylcellulose (CMC)) was 97 % of control. For the same compound, the T/C (dose: 400.0 mg/kg/injection, schedule: Q01DX001 (ip), vehicle: carboxymethylcellulose (CMC)) was 95 % of control.
`NCC1CCCCC1` was tested, and the T/C (dose: 6.25 mg/kg/injection, schedule: Q01DX009 (ip), vehicle: saline) was 107 % of control, the T/C (dose: 12.0 mg/kg/injection, schedule: Q04DX003 (ip), vehicle: saline) was 98 % of control and the T/C (dose: 12.5 mg/kg/injection, schedule: Q01DX009 (ip), vehicle: saline) was 105 % of control. For the same compound, the T/C (dose: 25.0 mg/kg/injection, schedule: Q01DX009 (ip), vehicle: saline) was 100 % of control, the T/C (dose: 25.0 mg/kg/injection, schedule: Q04DX003 (ip), vehicle: saline) was 110 % of control and the T/C (dose: 50.0 mg/kg/injection, schedule: Q01DX009 (ip), vehicle: saline) was 88 % of control. The T/C (dose: 50.0 mg/kg/injection, schedule: Q04DX003 (ip), vehicle: saline) was 104 % of control.
For `CCSc1ncc(F)c(=O)[nH]1`, the T/C (dose: 50.0 mg/kg/injection, schedule: Q01DX001 (ip), vehicle: saline) was 113 % of control, the T/C (dose: 100.0 mg/kg/injection, schedule: Q01DX001 (ip), vehicle: saline) was 101 % of control and the T/C (dose: 200.0 mg/kg/injection, schedule: Q01DX001 (ip), vehicle: saline) was 98 % of control.
`CCCC(=O)N1CCCCC1` was tested, and the T/C [1] was 88 % of control.
